Here are results for 29 compounds from patent US20250026759A1 (Merck Sharp & Dohme LLC, priority 2023, published 2025).

In the assay the test system is PBMCs infected with VSV-G pseudotyped HIV virus (VSV-G/pNLG1-P2A-ΔEnv). Nature of the assay: cells. Format: cell-based, human. The conditions noted are these: read-out: TACK EC50.

Where two headings read alike, the source gives them in different places.

Regarding `COCc1cnn(Cc2cc3c(cc2F)[C@@](C#CC2CC2)(C(C)(F)F)NC(=O)N3)c1` [Example 64, (S)-4-(cyclopropylethynyl)-4-(1,1-difluoroethyl)-6-fluoro-7-((4-(methoxymethyl)-1H-pyrazol-1-yl)methyl)-3,4-dihydroquinazolin-2(1H)-one], under “Homo sapiens, PBMC”, the EC50 (as a rule, the concentration needed to bring the measured effect to its halfway point) amounted to 34 nM. Consider `O=C1Nc2cc(Cn3c(=O)[nH]c4cnccc43)c(F)cc2[C@@](C#CC2CC2)(C(F)(F)F)N1` [Example 39, (S)-4-(cyclopropylethynyl)-6-fluoro-7-((2-oxo-2,3-dihydro-1H-imidazo[4,5-c]pyridin-1-yl)methyl)-4-(trifluoromethyl)-3,4-dihydroquinazolin-2(1H)-one], for which the EC50 (Homo sapiens, PBMC) came out at 13.7 nM.

As to `O=C1Nc2cc(Cn3ncc4ccncc43)c(F)cc2[C@@](C#CC2CC2)(C(F)(F)F)N1` (single isomer, unassigned) [Example 25], under “Homo sapiens, PBMC”, the EC50 worked out at 59.9 nM. In the case of `COC(C)c1ccn(Cc2cc3c(cc2F)[C@@](C#CC2CC2)(C(C)(F)F)NC(=O)N3)n1` (single isomer, unassigned) [Example 59, (S)-4-(cyclopropylethynyl)-4-(1,1-difluoroethyl)-6-fluoro-7-((3-((S or R)-1-methoxyethyl)-1H-pyrazol-1-yl)methyl)-3,4-dihydroquinazolin-2(1H)-one], the EC50 was 55.6 nM. With `CC(F)(F)[C@@]1(C#CC2CC2)NC(=O)Nc2cc(Cn3[nH]c(=O)c4c3CCC4)c(F)cc21` [Example 61, (S)-4-(cyclopropylethynyl)-4-(1,1-difluoroethyl)-6-fluoro-7-((3-oxo-3,4,5,6-tetrahydrocyclopenta[c]pyrazol-1(2H)-yl)methyl)-3,4-dihydroquinazolin-2(1H)-one], the EC50 (Homo sapiens, PBMC) came out at 30.6 nM. On to `COc1ccc(-c2ccn(Cc3cc4c(cc3F)[C@@](C#CC3CC3)(C(C)(F)F)NC(=O)N4)n2)cc1` [Example 97, (S)-4-(cyclopropylethynyl)-4-(1,1-difluoroethyl)-6-fluoro-7-((3-(4-methoxyphenyl)-1H-pyrazol-1-yl)methyl)-3,4-dihydroquinazolin-2(1H)-one], for which, where the note is “Homo sapiens, PBMC”, the EC50 stood at 45.3 nM. As for `O=C1Nc2cc(CNC(=O)c3ncco3)c(F)cc2[C@@](C#CC2CC2)(C(F)(F)F)N1` [Example 83, (S)-N-((4-(cyclopropylethynyl)-6-fluoro-2-oxo-4-(trifluoromethyl)-1,2,3,4-tetrahydroquinazolin-7-yl)methyl)oxazole-2-carboxamide], the EC50 (Homo sapiens, PBMC) worked out at 158 nM. For the compound `CC(F)(F)[C@@]1(C#CC2CC2)NC(=O)Nc2cc(Cn3cc(Cl)cn3)c(F)cc21` [Example 16, (S)-7-((4-chloro-1H-pyrazol-1-yl)methyl)-4-(cyclopropylethynyl)-4-(1,1-difluoroethyl)-6-fluoro-3,4-dihydroquinazolin-2(1H)-one], the EC50 (Homo sapiens, PBMC) is 32.4 nM. `CC(F)(F)[C@@]1(C#CC2CC2)NC(=O)Nc2cc(CN3C(=O)CNC3=O)c(F)cc21` [Example 14, (S)-3-((4-(cyclopropylethynyl)-4-(1,1-difluoroethyl)-6-fluoro-2-oxo-1,2,3,4-tetrahydroquinazolin-7-yl)methyl)imidazolidine-2,4-dione]: the EC50 (Homo sapiens, PBMC) is 24.8 nM.

In the case of `Cc1cc[nH]c1C(=O)NCc1cc2c(cc1F)[C@@](C#CC1CC1)(C(F)(F)F)NC(=O)N2` [Example 86, (S)-N-((4-(cyclopropylethynyl)-6-fluoro-2-oxo-4-(trifluoromethyl)-1,2,3,4-tetrahydroquinazolin-7-yl)methyl)-3-methyl-1H-pyrrole-2-carboxamide], the EC50 (Homo sapiens, PBMC) amounted to 15.7 nM. Consider `N#Cc1c[nH]c(C(=O)NCc2cc3c(cc2F)[C@@](C#CC2CC2)(C(F)(F)F)NC(=O)N3)c1` [Example 88, (S)-4-cyano-N-((4-(cyclopropylethynyl)-6-fluoro-2-oxo-4-(trifluoromethyl)-1,2,3,4-tetrahydroquinazolin-7-yl)methyl)-1H-pyrrole-2-carboxamide], for which the EC50 (Homo sapiens, PBMC) turned out to be 25.4 nM. For the compound `COCc1ccn(Cc2cc3c(cc2F)[C@@](C#CC2CC2)(C(F)(F)F)NC(=O)N3)n1` [Example 30, (S)-4-(cyclopropylethynyl)-6-fluoro-7-((3-(methoxymethyl)-1H-pyrazol-1-yl)methyl)-4-(trifluoromethyl)-3,4-dihydroquinazolin-2(1H)-one], the EC50 (Homo sapiens, PBMC) came out at 36.5 nM. Take `COC(C)c1ccn(Cc2cc3c(cc2F)[C@@](C#CC2CC2)(C(C)(F)F)NC(=O)N3)n1` (single isomer, unassigned) [Example 58, (S)-4-(cyclopropylethynyl)-4-(1,1-difluoroethyl)-6-fluoro-7-((3-((R or S)-1-methoxyethyl)-1H-pyrazol-1-yl)methyl)-3,4-dihydroquinazolin-2(1H)-one]: the EC50 came out at 25 nM. On to `CN1C(=O)Nc2cc(CN3C(=O)CNC3=O)c(F)cc2[C@@]1(C#CC1CC1)C(F)(F)F` [Example 42, (S)-3-((4-(cyclopropylethynyl)-6-fluoro-3-methyl-2-oxo-4-(trifluoromethyl)-1,2,3,4-tetrahydroquinazolin-7-yl)methyl)imidazolidine-2,4-dione], for which, under “Homo sapiens, PBMC”, the EC50 came out at 38.8 nM. `Nc1ccn(Cc2cc3c(cc2F)[C@@](C#CC2CC2)(C(F)(F)C2CC2)NC(=O)N3)n1` [Example 46, (S)-7-((3-amino-1H-pyrazol-1-yl)methyl)-4-(cyclopropyldifluoromethyl)-4-(cyclopropylethynyl)-6-fluoro-3,4-dihydroquinazolin-2(1H)-one]: the EC50 (Homo sapiens, PBMC) is 26.7 nM. As for `O=C1Nc2cc(CNC(=O)c3[nH]cnc3Cl)c(F)cc2[C@@](C#CC2CC2)(C(F)(F)F)N1` [Example 78, (S)-4-chloro-N-((4-(cyclopropylethynyl)-6-fluoro-2-oxo-4-(trifluoromethyl)-1,2,3,4-tetrahydroquinazolin-7-yl)methyl)-1H-imidazole-5-carboxamide], under “Homo sapiens, PBMC”, the EC50 turned out to be 15.1 nM. Regarding `Cn1ccnc1C(=O)NCc1cc2c(cc1F)[C@@](C#CC1CC1)(C(C)(F)F)NC(=O)N2` [Example 82, (S)-N-((4-(cyclopropylethynyl)-4-(1,1-difluoroethyl)-6-fluoro-2-oxo-1,2,3,4-tetrahydroquinazolin-7-yl)methyl)-1-methyl-1H-imidazole-2-carboxamide], the EC50 (Homo sapiens, PBMC) amounted to 154 nM. Take `CC(F)(F)[C@@]1(C#CC2CC2)NC(=O)Nc2cc(Cn3ccc(CO)n3)c(Cl)cc21` [Example 48, (S)-6-chloro-4-(cyclopropylethynyl)-4-(1,1-difluoroethyl)-7-((3-(hydroxymethyl)-1H-pyrazol-1-yl)methyl)-3,4-dihydroquinazolin-2(1H)-one]: the EC50 (Homo sapiens, PBMC) came to 29.6 nM. The same measure, in the same setting: in the case of `O=C1Nc2cc(Cn3ccc4c3CCNC4=O)c(F)cc2[C@@](C#CC2CC2)(C(F)(F)F)N1` [Example 98, (S)-4-(cyclopropylethynyl)-6-fluoro-7-((4-oxo-4,5,6,7-tetrahydro-1H-pyrrolo[3,2-c]pyridin-1-yl)methyl)-4-(trifluoromethyl)-3,4-dihydroquinazolin-2(1H)-one] it was 65.4 nM; in that of `CC(C)(O)c1ccn(Cc2cc3c(cc2F)[C@@](C#CC2CC2)(C(C)(F)F)NC(=O)N3)n1` [Example 129, (S)-4-(cyclopropylethynyl)-4-(1,1-difluoroethyl)-6-fluoro-7-((3-(2-hydroxypropan-2-yl)-1H-pyrazol-1-yl)methyl)-3,4-dihydroquinazolin-2(1H)-one], 171 nM. Still for that read-out and setting: with `NC(=O)c1nccn1Cc1cc2c(cc1F)[C@@](C#CC1CC1)(C(F)(F)F)NC(=O)N2` [Example 100, (S)-1-((4-(cyclopropylethynyl)-6-fluoro-2-oxo-4-(trifluoromethyl)-1,2,3,4-tetrahydroquinazolin-7-yl)methyl)-1H-imidazole-2-carboxamide] the figure was 13.6 nM; with `Cc1nn(Cc2cc3c(cc2F)[C@@](C#CC2CC2)(C(C)(F)F)NC(=O)N3)c2ccccc12` [Example 93, (S)-4-(cyclopropylethynyl)-4-(1,1-difluoroethyl)-6-fluoro-7-((3-methyl-1H-indazol-1-yl)methyl)-3,4-dihydroquinazolin-2(1H)-one], 28.5 nM; with `CC(F)(F)[C@@]1(C#CC2CC2)NC(=O)Nc2cc(Cn3ncc(F)c3C(N)=O)c(F)cc21` (single isomer, unassigned) [Example 103], 30.2 nM. As for `Cc1cc(N)nn1Cc1cc2c(cc1F)[C@@](C#CC1CC1)(C(C)(F)F)NC(=O)N2` [Example 44, (S)-7-((3-amino-5-methyl-1H-pyrazol-1-yl)methyl)-4-(cyclopropylethynyl)-4-(1,1-difluoroethyl)-6-fluoro-3,4-dihydroquinazolin-2(1H)-one], the EC50 (Homo sapiens, PBMC) amounted to 19.5 nM. On the same count and under the same terms, in the case of `Cn1cnn(Cc2cc3c(cc2F)[C@@](C#CC2CC2)(C(C)(F)F)NC(=O)N3)c1=O` [Example 122, (S)-4-(cyclopropylethynyl)-4-(1,1-difluoroethyl)-6-fluoro-7-((4-methyl-5-oxo-4,5-dihydro-1H-1,2,4-triazol-1-yl)methyl)-3,4-dihydroquinazolin-2(1H)-one] it was 74.2 nM.

In the case of `CC(F)(F)[C@@]1(C#CC2CC2)NC(=O)Nc2cc(Cn3c(Cl)n[nH]c3=O)c(F)cc21` [Example 35, (S)-7-((3-chloro-5-oxo-1,5-dihydro-4H-1,2,4-triazol-4-yl)methyl)-4-(cyclopropylethynyl)-4-(1,1-difluoroethyl)-6-fluoro-3,4-dihydroquinazolin-2(1H)-one], the EC50 (Homo sapiens, PBMC) came out at 10.9 nM. Take `COc1cnn(Cc2cc3c(cc2F)[C@@](C#CC2CC2)(C(C)(F)F)NC(=O)N3)c1` [Example 3, (S)-4-(cyclopropylethynyl)-4-(1,1-difluoroethyl)-6-fluoro-7-((4-methoxy-1H-pyrazol-1-yl)methyl)-3,4-dihydroquinazolin-2(1H)-one]: the EC50 (Homo sapiens, PBMC) was determined as 14.4 nM. Take `CC(F)(F)[C@@]1(C#CC2CC2)NC(=O)Nc2cc(Cn3cncn3)c(F)cc21` [Example 20, (S)-7-((1H-1,2,4-triazol-1-yl)methyl)-4-(cyclopropylethynyl)-4-(1,1-difluoroethyl)-6-fluoro-3,4-dihydroquinazolin-2(1H)-one]: where the note is “Homo sapiens, PBMC”, the EC50 was 43.7 nM. Turning to `CC(F)(F)[C@@]1(C#CC2CC2)NC(=O)Nc2cc(Cn3cnc(CO)c3)c(F)cc21` (single isomer, unassigned) [Example 51], where the note is “Homo sapiens, PBMC”, the EC50 turned out to be 107 nM.
